Assay results published in patent US11834453B2, “Substituted pyrimido[5,4-d]pyrimidines as HER2 inhibitors” (Array BioPharma Inc., priority 2020, dated 2023).
Read-outs that look alike come from different tables or passages of the source.

How the values were obtained:
[1] = target: ErbB2 with Exon 20 YVMA insertion (HER2-YVMA) (Homo sapiens (Human), UniProt P04626, INS775YVMA); assay: Cellular phosphorylation assay, constitutive ErbB2 phosphorylation (Y1196) in engineered NIH 3T3 cells, Assay 4; type: cell-based
Chain of ErbB2 with Exon 20 YVMA insertion (HER2-YVMA) (P04626 other isoform, or with tags, fused parts or gaps ins YVMA behind 775): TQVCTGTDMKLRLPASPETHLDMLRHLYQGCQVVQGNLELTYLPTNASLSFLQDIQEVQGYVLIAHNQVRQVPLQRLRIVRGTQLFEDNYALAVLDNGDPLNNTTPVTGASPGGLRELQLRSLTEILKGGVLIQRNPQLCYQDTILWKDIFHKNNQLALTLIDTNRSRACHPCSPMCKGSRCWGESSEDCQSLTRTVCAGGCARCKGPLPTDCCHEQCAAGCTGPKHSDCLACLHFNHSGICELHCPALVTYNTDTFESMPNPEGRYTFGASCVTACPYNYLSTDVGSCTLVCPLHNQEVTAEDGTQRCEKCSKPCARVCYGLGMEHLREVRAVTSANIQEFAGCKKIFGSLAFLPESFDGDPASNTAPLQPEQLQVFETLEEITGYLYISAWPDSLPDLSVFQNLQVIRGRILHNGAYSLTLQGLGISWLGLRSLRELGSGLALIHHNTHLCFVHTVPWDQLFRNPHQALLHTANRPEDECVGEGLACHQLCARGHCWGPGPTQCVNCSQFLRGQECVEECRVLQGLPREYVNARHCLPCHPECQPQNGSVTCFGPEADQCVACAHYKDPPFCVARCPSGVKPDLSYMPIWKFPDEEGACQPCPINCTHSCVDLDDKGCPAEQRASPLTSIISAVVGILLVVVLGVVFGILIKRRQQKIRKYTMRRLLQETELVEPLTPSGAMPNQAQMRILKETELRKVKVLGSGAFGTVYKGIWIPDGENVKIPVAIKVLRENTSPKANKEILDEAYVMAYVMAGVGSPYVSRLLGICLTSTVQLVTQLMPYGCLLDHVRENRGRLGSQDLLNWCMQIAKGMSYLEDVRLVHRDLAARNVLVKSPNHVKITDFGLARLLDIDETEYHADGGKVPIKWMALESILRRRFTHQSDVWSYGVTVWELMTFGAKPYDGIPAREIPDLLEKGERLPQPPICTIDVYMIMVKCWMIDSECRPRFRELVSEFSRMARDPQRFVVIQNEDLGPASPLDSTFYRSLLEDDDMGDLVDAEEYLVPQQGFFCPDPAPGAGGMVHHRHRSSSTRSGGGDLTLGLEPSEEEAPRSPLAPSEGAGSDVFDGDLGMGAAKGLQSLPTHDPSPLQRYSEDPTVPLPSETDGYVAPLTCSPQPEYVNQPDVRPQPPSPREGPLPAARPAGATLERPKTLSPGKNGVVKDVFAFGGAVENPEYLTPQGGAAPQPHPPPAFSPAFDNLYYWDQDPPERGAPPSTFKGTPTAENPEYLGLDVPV
Summary of the method: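 In-cell Western in NIH 3T3 cells carrying ErbB2 exon 20 YVMA insertion, with no ligand stimulation. One hour compound exposure at 37 °C before fixation and anti-pY1196 plus GAPDH staining with dual-wavelength fluorescence. IC50 derived after GAPDH normalization.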

[2] = target: EGFR wild type (EGFR WT) (Homo sapiens (Human), UniProt P00533); assay: Cellular phosphorylation assay, EGF-stimulated EGFR phosphorylation in engineered NIH 3T3 cells, Phospho-EGFR DuoSet IC ELISA, Assay 5; type: cell-based
Summary of the method: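 Phospho-EGFR ELISA on lysates of engineered NIH 3T3 EGFR WT cells, IC50 derived from concentration curves. Cells plated at 20,000/well overnight, given compound dilutions 1 h at 37 °C, then rEGF 100 ng/ml for a further 10 min before lysis.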

[3] = target: ErbB2 insYVMA (HER2-YVMA, SEQ ID NO: 2) (Homo sapiens, UniProt P04626, INS775YVMA/P1170A); assay: biochemical; settings: ErbB2 insYVMA enzyme assay
Chain of ErbB2 insYVMA (HER2-YVMA, SEQ ID NO: 2) (P04626 with tags, fused parts or gaps INS775YVMA/P1170A limits assumed): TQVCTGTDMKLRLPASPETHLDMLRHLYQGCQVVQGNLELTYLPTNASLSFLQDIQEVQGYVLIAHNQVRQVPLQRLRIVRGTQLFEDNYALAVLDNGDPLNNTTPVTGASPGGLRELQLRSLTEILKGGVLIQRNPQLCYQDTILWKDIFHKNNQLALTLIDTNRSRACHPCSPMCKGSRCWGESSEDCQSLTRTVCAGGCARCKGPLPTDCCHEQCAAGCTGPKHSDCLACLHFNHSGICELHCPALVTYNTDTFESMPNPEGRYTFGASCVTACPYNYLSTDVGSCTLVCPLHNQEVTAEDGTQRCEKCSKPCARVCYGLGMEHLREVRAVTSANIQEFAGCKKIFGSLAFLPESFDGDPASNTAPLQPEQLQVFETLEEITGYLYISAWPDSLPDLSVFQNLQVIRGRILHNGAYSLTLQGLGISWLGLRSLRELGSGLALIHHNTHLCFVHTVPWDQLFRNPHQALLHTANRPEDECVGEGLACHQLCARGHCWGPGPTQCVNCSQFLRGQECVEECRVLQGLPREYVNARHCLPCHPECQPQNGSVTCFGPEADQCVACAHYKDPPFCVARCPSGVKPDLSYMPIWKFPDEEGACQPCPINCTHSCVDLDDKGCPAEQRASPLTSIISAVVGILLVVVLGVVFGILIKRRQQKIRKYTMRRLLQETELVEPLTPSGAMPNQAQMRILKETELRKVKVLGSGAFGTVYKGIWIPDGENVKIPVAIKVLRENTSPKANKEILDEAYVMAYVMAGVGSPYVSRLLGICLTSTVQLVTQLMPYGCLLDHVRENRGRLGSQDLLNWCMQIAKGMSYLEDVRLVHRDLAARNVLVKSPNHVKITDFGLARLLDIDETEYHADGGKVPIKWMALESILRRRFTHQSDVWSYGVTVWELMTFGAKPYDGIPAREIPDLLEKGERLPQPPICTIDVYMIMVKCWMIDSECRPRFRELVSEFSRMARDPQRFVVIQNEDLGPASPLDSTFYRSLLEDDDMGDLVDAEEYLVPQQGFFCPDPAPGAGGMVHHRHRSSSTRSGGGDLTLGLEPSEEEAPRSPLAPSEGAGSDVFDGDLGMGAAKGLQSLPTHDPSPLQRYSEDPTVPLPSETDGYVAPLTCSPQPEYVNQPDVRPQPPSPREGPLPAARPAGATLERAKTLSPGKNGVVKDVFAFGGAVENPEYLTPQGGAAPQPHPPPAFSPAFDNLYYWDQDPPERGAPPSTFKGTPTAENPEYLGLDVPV

[4] = target: ErbB2 WT (Homo sapiens (Human), UniProt P04626); assay: ErbB enzyme assay (CisBio HTRF KinEASE-TK), Assay 2; type: biochemical
Chain of ErbB2 WT (P04626 23-1255): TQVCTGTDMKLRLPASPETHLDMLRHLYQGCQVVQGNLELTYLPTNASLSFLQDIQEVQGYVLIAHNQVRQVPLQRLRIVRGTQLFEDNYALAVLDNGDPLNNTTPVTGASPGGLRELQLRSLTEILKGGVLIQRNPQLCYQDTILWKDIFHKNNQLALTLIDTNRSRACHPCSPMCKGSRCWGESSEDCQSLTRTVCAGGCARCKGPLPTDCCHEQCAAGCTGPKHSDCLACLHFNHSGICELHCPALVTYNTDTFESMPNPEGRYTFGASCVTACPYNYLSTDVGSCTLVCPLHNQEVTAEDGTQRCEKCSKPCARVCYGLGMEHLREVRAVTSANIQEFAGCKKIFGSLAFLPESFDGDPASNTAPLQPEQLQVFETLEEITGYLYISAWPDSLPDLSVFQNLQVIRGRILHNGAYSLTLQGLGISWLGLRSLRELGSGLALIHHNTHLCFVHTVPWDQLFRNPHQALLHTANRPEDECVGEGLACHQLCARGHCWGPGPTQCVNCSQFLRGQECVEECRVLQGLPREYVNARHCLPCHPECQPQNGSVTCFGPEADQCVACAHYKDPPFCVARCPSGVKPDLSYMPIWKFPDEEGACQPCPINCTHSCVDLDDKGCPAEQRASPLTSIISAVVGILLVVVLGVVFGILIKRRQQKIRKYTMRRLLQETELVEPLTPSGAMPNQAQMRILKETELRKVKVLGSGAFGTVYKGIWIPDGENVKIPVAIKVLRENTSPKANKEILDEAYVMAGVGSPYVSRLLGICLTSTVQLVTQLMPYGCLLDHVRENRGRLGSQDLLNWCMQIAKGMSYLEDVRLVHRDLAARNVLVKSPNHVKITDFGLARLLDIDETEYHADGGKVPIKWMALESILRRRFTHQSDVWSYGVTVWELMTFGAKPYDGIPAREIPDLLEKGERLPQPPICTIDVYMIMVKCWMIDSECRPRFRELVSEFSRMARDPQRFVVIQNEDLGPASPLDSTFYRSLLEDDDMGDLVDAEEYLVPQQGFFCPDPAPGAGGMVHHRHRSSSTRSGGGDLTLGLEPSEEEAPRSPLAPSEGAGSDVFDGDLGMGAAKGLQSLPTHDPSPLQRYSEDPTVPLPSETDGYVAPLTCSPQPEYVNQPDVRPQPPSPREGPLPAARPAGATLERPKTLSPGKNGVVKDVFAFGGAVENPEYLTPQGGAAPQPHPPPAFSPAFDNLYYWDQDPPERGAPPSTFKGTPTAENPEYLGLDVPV
Summary of the method: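 Readout is HTRF KinEASE-TK, using Sa-XL665 and cryptate antibody for 1 h at 22 °C, as percent of control between DMSO-only (100) and pre-quenched (0) reactions. The kinase reaction runs 30 min at 22 °C with 1 mM ATP and 250 nM biotinylated TK substrate, in HEPES pH 7.4 with MgCl2 and 2% DMSO.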

[5] = target: MDR1 (P-gp) (Homo sapiens (Human), UniProt P08183); assay: MDR1 transfected MDCKII canine Mdr1 knockout permeability/efflux, Assay 7; settings: dog, MDCK-MDR1
Chain of MDR1 (P-gp) (P08183 whole entry): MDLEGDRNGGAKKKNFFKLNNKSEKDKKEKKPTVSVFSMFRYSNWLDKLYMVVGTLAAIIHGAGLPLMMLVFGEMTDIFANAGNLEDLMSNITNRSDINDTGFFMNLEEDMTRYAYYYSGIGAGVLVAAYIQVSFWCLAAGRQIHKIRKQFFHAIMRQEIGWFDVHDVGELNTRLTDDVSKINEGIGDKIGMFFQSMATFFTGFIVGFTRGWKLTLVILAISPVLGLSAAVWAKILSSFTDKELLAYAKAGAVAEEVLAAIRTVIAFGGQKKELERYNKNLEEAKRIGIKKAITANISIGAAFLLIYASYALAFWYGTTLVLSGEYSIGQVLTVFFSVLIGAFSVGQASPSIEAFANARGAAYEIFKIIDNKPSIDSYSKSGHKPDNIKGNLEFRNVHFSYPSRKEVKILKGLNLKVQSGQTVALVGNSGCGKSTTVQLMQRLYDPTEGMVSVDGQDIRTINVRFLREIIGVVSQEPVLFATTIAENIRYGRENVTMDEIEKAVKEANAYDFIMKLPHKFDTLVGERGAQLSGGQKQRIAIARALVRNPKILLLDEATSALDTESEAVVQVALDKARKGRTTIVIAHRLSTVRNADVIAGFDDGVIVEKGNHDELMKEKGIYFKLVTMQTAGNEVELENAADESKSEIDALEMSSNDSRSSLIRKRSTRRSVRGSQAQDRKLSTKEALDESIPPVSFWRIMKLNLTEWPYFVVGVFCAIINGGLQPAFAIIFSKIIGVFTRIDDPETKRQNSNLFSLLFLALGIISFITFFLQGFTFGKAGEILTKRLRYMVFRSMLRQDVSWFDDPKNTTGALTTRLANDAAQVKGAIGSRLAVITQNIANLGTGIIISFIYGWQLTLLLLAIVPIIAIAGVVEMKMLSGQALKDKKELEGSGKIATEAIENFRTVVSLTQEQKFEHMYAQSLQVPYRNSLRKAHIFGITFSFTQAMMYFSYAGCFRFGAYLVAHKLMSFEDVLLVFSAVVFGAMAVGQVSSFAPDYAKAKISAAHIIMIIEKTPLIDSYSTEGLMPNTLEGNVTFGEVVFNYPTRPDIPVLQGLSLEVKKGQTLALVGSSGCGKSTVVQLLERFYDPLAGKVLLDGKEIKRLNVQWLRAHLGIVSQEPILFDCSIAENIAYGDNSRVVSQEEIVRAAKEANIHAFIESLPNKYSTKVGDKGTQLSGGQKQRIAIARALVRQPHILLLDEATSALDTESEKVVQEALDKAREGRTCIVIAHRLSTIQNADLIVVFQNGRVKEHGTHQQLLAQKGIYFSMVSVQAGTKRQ

[6] = target: EGFR (Homo sapiens (Human), UniProt P00533); assay: ErbB enzyme assay (CisBio HTRF KinEASE-TK), Assay 3; type: biochemical
Summary of the method: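 HTRF dual-wavelength read after 1 h detection; POC normalised to DMSO (100) and pre-quenched (0) controls, IC50 where 4-parameter curve crosses 50 POC. Reaction: 250 nM TK-substrate biotin, 1 mM ATP, pH 7.4 HEPES buffer with MgCl2, 30 min, 22 °C.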

Compound	IC50 [1] [µM]	IC50 [2] [µM]	IC50 ([3]; read-out: Assay 1 IC50) [nM]	IC50 [4] [µM]	efflux ratio at 2 h, 1 μM [5]	IC50 [6] [µM]	IC50 ([3]; Assay 1 IC50 (nM)) [nM]
Cc1cc(Nc2ncnc3cnc(N4C[C@H]5CCS(=O)(=O)[C@H]5C4)nc23)ccc1Oc1ccc2c(c1)ncn2C (racemic) [Example 92, rac-(3aR,6aR)-5-(8-((3-methyl-4-((1-methyl-1H-benzo[d]imidazol-5-yl)oxy)phenyl)amino)pyrimido[5,4-d]pyrimidin-2-yl)hexahydro-2H-thieno[2,3-c]pyrrole 1,1-dioxide]	0.0233	≥ 5	10.7	0.0189	3.8	8.78	
CN(CCC(C)(C)O)c1ncc2ncnc(Nc3ccc(Oc4ccn5ncnc5c4)c(Cl)c3)c2n1 [Example 101, 4-((8-((4-([1,2,4]triazolo[1,5-a]pyridin-7-yloxy)-3-chlorophenyl)amino)pyrimido[5,4-d]pyrimidin-2-yl)(methyl)amino)-2-methylbutan-2-ol]	0.0082	≥ 5	15.4	0.0147	1.5	≥ 10	
Cc1cc(Nc2ncnc3cnc(N(C)[C@@H]4CNC[C@@H]4F)nc23)ccc1Oc1ccc2c(c1)ncn2C [Example 94, N2-((3R,4S)-4-fluoropyrrolidin-3-yl)-N2-methyl-N8-(3-methyl-4-((1-methyl-1H-benzo[d]imidazol-5-yl)oxy)phenyl)pyrimido[5,4-d]pyrimidine-2,8-diamine]	0.0203	≥ 5	21.3	0.0313	12	4.36	
Cn1cnc2cc(Oc3ccc(Nc4ncnc5cnc(N6CCN(C7COC7)CC6)nc45)cc3Cl)ccc21 [Example 485]	0.0111	≥ 5	21.7	0.0772	1.3	≥ 10	
Cc1cc(Nc2ncnc3cnc(N4C[C@@H](C)[C@H](O)C4)nc23)ccc1Oc1ccc2c(c1)ncn2C [Example 167, (3S,4R)-4-methyl-1-(8-((3-methyl-4-((1-methyl-1H-benzo[d]imidazol-5-yl)oxy)phenyl)amino)pyrimido[5,4-d]pyrimidin-2-yl)pyrrolidin-3-ol]	0.0242	≥ 5	17.7	0.0346	2.8	9.05	
Cn1cnc2cc(Oc3ccc(Nc4ncnc5cnc(N6CC7C8CCC(O8)C7C6)nc45)cc3Cl)ccc21.O=C(O)C(F)(F)F (stereo not drawn) [Example 149, N-(3-chloro-4-((1-methyl-1H-benzo[d]imidazol-5-yl)oxy)phenyl)-6-(octahydro-2H-4,7-epoxyisoindol-2-yl)pyrimido[5,4-d]pyrimidin-4-amine]	0.0265	≥ 5		0.102	1	≥ 10	99
CN(c1ncc2ncnc(Nc3ccc(Oc4ccn5ncnc5c4)c(Cl)c3)c2n1)[C@H]1CCCOC1 [Example 360]	0.0298	≥ 5	24.9	0.0255	1.3	≥ 10	
Cc1cc(Nc2ncnc3cnc(N4CCNC(=O)C4)nc23)ccc1Oc1ccc2c(c1)ncn2C [Example 198, 4-(8-((3-methyl-4-((1-methyl-1H-benzo[d]imidazol-5-yl)oxy)phenyl)amino)pyrimido[5,4-d]pyrimidin-2-yl)piperazin-2-one]	0.0376	≥ 5	20	0.0219	10.7	3.3	
Cn1cnc2cc(Oc3ccc(Nc4ncnc5cnc(N6CCN7CCOC[C@@H]7C6)nc45)cc3Cl)ccc21.O=C(O)C(F)(F)F.O=C(O)C(F)(F)F [Example 151, (S)—N-(3-chloro-4-((1-methyl-1H-benzo[d]imidazol-5-yl)oxy)phenyl)-6-(hexahydropyrazino[2,1-c][1,4]oxazin-8(1H)-yl)pyrimido[5,4-d]pyrimidin-4-amine bis(2,2,2-trifluoroacetate)]	0.0188	≥ 5		0.0614	1.2	≥ 10	24.6
